Values joined by “and” are separate entries in the source; they are usually repeats but may differ in a detail not shown here. Equal values may be shown once. Read-outs that look alike come from different tables or passages of the source.
Test: Plasma concentrations and pharmacokinetics after intravenous bolus of C3G (NCA and two-compartment model)
Format: in vivo, Wistar rats
Settings: for C0: read-out: C0 (back-extrapolated concentration)
Text: Twenty-two male Wistar rats (Rattus Norvegicus, Harlan Italy S.r.l.), of same age (15 weeks), 293–390 g of body weight, were used. The rats were randomly divided into 5 groups, according to the time that elapsed after intravenous administration of the test compound, and one control group. Each time point was represented by four biological replicates. All animals were allowed to acclimate to the animal facility of the University of Trieste for at least 2 week before studies were initiated. The experimental design was vetted and approved by the bioethical committee of the University of Trieste (internal code 140PAS14), according to the provisions of the European Community Council Directive 2010/63/EU[39]. The methods were carried out in accordance with the approved guidelines. The animals (n = 22) were maintained in cages in a room at 23 ± 2 °C, 50–60% humidity with a 12-hour light-dark cycle. The night before the experiment, food was withdrawn from the cages but water was given ad libitum. On the day of the experiment, the rats were anesthetized with intra-peritoneal administration of tiletamine/zolazepam (1:1, 25 mg/kg body weight) and xylazine (10 mg/kg body weight). During anaesthesia (10 min in all cases), the heart and ventilation rate were monitored. The rats were placed on their backs, with the ventral side up and with the legs spread separately on a thermo-isolated support. The penis was extruded by sliding the prepuce downwards. The dorsal penis vein was then seen along both sides of the penis and exactly 10 min after anaesthesia 0.2 mL PBS without (control group) or with (treated group) 668 nmol cyanidin 3-glucoside (C3G) in PBS was injected using a 24-G hypodermic needle. Then the injection site was pressed with a swab for a few seconds, and the glans was encouraged to retract to prevent further bleeding. One min before sacrificing the rats, sodium heparin (0.1 ml, 500 IU) was injected again into the dorsal penis vein, exposed in the same way. […] Blood draining and excision of the organs were carried out according to the literature. In detail, blood was collected from the neck of rats hold upside down, immediately after their decapitation, which happened at the time points sharp. Exsanguination took 5 seconds; laparotomy and excision of the liver and the kidneys took 5 more seconds. The post-decapitation procedures were standardised. Urine was collected through the urinary bladder with a syringe before decapitation. Kidneys, liver and brain were washed with mQ water, immediately frozen in liquid nitrogen and stored at −80 °C.
Immediately after sampling, 5 mL of blood were transferred into ice-cold (−20 °C), deoxygenated aqueous 95% methanol in a ratio 1:9 (v/v). The urine was weighted and transferred into ice-cold, deoxygenated aqueous 95% methanol at a ratio of 1:9 (w/v). Frozen kidneys, liver and brain were grounded under cryogenic conditions (−196 °C) to 5 μm particles in a CryoMill (Retsch, Germany), using a single 25 mm i. d. steel ball (30 seconds, 25/sec frequency). The pulverized tissue was rapidly transferred (without thawing) into ice-cold, deoxygenated aqueous 95% methanol at a ratio of 1:9 (w/v). Cinnamic acid-d5, as internal standard, was dissolved in the aqueous methanol at concentration of 0.1 mg/L for the monitoring of the extraction protocol in biofluids and tissues.
All samples were extracted with an orbital shaker for 10 min at room temperature. The methanol extracts were then centrifuged for 5 min at 3600 rpm at 4 °C, decanted under a stream of nitrogen in 50 mL dark glass vessels and stored at −80 °C. Clean-up of extracted samples in methanol was performed by solid phase extraction (SPE), as previously described. Briefly, 5 mL of extracted samples were evaporated on a rotary evaporator and reconstituted in 10 mL of acidified water. Anthocyanins were extracted by solid-phase adsorption onto a hydrophobic matrix (Sep-Pak C18, 0.35 g, Waters, Milford, MA). […]

[1] = male, Wistar, rat, plasma, iv, 668 nmol, non-compartmental analysis
[2] = male, Wistar, rat, plasma, iv, 668 nmol, two-compartment model analysis

For `OC[C@H]1O[C@@H](Oc2cc3c(O)cc(O)cc3[o+]c2-c2ccc(O)c(O)c2)[C@H](O)[C@@H](O)[C@@H]1O` [C3G, Cyanidin-3-O-β-glucoside], the “Plasma concentration range with linear plasma/brain correlation” value (0.25–20 min) was 19 to 355 nM and 18.78 to 354.84 nM, the “Time after which half of the compound had been cleared from the plasma” value (distribution phase) was 18 s and the “Time window needed to describe complete elimination” value (estimate) was “no more than 1 hour”. The k el (male, Wistar, rat, iv, non-compartmental analysis, plasma, i.v. 668 nmol, read-out: λz (first order terminal elimination rate constant) (converted)) was 0.00167 s⁻¹, the AUC0-t (male, Wistar, rat, iv, plasma, i.v. 668 nmol C3G, read-out: AUC0–20 (converted)) was 0.0194 µM·h and the time to complete elimination (male, Wistar, rat, plasma, intravenous, 668 nmol, estimate, read-out: Time for complete elimination (5–6 half-lives)) was 40 to 50 min. For the same molecule, the C0 (male, Wistar, rat, plasma, intravenous, 668 nmol, non-compartmental analysis) was 429 nM, the half-life (male, Wistar, rat, plasma, intravenous, 668 nmol, plasma, read-out: Mean half-life) was < 8 min and the C0 (male, Wistar, rat, plasma, intravenous, 668 nmol, two-compartment model analysis) was 550 nM. For the same molecule, the MRT (male, Wistar, rat, plasma, intravenous, 668 nmol, two-compartment model analysis, read-out: MRT (converted)) was 9.21 min, the MRT (male, Wistar, rat, plasma, intravenous, 668 nmol, two-compartment model analysis, read-out: MRTP (mean residence time in the peripheral space) (converted)) was 6.68 min and the AUC(0-inf) [1] was 0.0225 µM·h. It also gave a Cmax [1] of 355 nM, a Tmax [1] of 0.25 min and a C0 [1] of 429 nM. It also gave a clearance (male, Wistar, rat, plasma, iv, 668 nmol, non-compartmental analysis, read-out: CL (total body clearance)) of 490 mL/min, an MRT (male, Wistar, rat, plasma, iv, 668 nmol, non-compartmental analysis, read-out: MRT (converted)) of 8.72 min and a Vd (male, Wistar, rat, plasma, iv, 668 nmol, non-compartmental analysis, read-out: Vss) of 4.31 L. The Vd (male, Wistar, rat, plasma, iv, 668 nmol, non-compartmental analysis, read-out: Vz) was 4.92 L, the half-life (male, Wistar, rat, plasma, iv, 668 nmol, non-compartmental analysis, read-out: t1/2 (terminal elimination half-life)) was 6.9 min and the half-life (male, Wistar, rat, plasma, iv, 668 nmol, plasma, i.v. 668 nmol C3G, read-out: Half life) was 6.9 min. It also gave an AUC(0-inf) [2] of 0.0222 µM·h, a C0 [2] of 550 nM and an MRT (male, Wistar, rat, plasma, iv, 668 nmol, two-compartment model analysis, read-out: MRT (converted)) of 9.22 min. The Vd (male, Wistar, rat, plasma, iv, 668 nmol, two-compartment model analysis, read-out: Vss) was 4.58 L, the half-life (male, Wistar, rat, plasma, iv, 668 nmol, two-compartment model analysis, read-out: t1/2e (elimination half-life)) was 7.41 min and the half-life (male, Wistar, rat, plasma, iv, 668 nmol, two-compartment model analysis, read-out: t1/2d (distribution half-life)) was 0.3 min. The concentration at 0.25 min (male, Wistar, rat, plasma, iv, 0.25 min after i.v. 668 nmol C3G, mean ± SEM n=4) was 355 ± 54.2 nM, the concentration at 2 min (male, Wistar, rat, plasma, iv, 2 min after i.v. 668 nmol C3G, mean ± SEM n=4) was 93.8 ± 9.01 nM and the concentration at 5 min (male, Wistar, rat, plasma, iv, 5 min after i.v. 668 nmol C3G, mean ± SEM n=4) was 72.2 ± 5.47 nM. It also gave a concentration at 15 min (male, Wistar, rat, plasma, iv, 15 min after i.v. 668 nmol C3G, mean ± SEM n=4) of 17.5 ± 2.04 nM, a concentration at 20 min (male, Wistar, rat, plasma, iv, 20 min after i.v. 668 nmol C3G, mean ± SEM n=4) of 18.8 ± 4.06 nM and an AUMC (non-compartmental analysis) of 11789.96 nM*min^2. For the same molecule, the “Residual amount eliminated per min” value (per min) was “ca. 10%”, the “Time for distribution to go to 50% completion” value (rat, in vivo) was “ca. 8 s” and the “Fraction distributed beyond plasma at distribution equilibrium” value (steady state) was 99.76%. For the same molecule, the “Fraction present in plasma at distribution equilibrium” value (steady state) was 0.24%, the “Share of MRT spent in the peripheral space” value (two-compartment model) was 73.51% and the AUMC (two-compartment model analysis) was 12394.67 nM*min^2. For the same molecule, the “CL (total body clearance)” value (two-compartment model analysis) was 0.49 L/min, the “FAUC (AUC peripheral bioavailability, MRTP/MRTC)” value (two-compartment model analysis) was 2.77 and the “IC (number of circulations, MRTP/MTTP)” value (two-compartment model analysis) was 3.55. For the same molecule, the “MTT (mean transit time; MTTC, mean duration of one visit in central compartment)” value (two-compartment model analysis) was 0.54 min, the “MTTp (mean transit time in the peripheral space)” value (two-compartment model analysis) was 1.91 min and the “V1 (volume of central compartment)” value (two-compartment model analysis) was 1.21 L. For the same molecule, the “V2 (volume of peripheral compartment)” value (two-compartment model analysis) was 3.36 L, the “a (T0 intercept of distribution kinetics)” value (two-compartment model analysis) was 442.79 nM and the “b (T0 intercept of elimination phase)” value (two-compartment model analysis) was 107.68 nM. For the same molecule, the k10 (two-compartment model analysis) was 0.41 min^–1, the k12 (two-compartment model analysis) was 1.45 min^–1 and the k21 (two-compartment model analysis) was 0.52 min^–1. For the same molecule, the “α (slope factor)” value (two-compartment model analysis) was 2.29 min^–1 and the “β (slope factor)” value (two-compartment model analysis) was 0.09 min^–1.

From article PMC4786809, “Determination of cyanidin 3-glucoside in rat brain, liver and kidneys by UPLC/MS-MS and its application to a short-term pharmacokinetic study” (Scientific Reports, 2016)
